{
  "source": "patent US20190185479A1",
  "about": "“BICYCLIC NITROGENATED HETEROCYCLIC COMPOUND” (MITSUBISHI TANABE PHARMA CORPORATION, priority 2016, published 2019)",
  "key": {"hPDE5A": {"molecular_target": "T1, hPDE5A (Homo sapiens, UniProt O76074)", "T1 construct": "purchased SB Drug Discovery", "assay": "PDE7 selectivity test (Ki value), Experimental Example 2: hPDE5A", "assay_type": "biochemical", "details": "Ki from IC50 by Cheng-Prusoff, read-out: PDE inhibition constant Ki, PDE5", "experimental": "(§1) hPDE1A, hPDE2A, hPDE3A, hPDE4D, hPDE5A, and hPDE8B were purchased from SB Drug Discovery. hPDE7B was isolated by the same method as [Method for preparing samples 1], and hPDE9A, hPDE10A, and hPDE11A were isolated by the same method as hPDE7B, i.e., isolated from COS-7 cells transfected with plasmids encoding each PDE. PDE6 was purified and isolated from bovine retina (bovine PDE6).\n(§2) Prior to the calculation of Ki value, Km value of each PDE against cAMP or cGMP was calculated. Each PDE diluted with an assay buffer so that it would have an appropriate enzyme activity, and six or more concentrations of cAMP or cGMP were reacted at room temperature for 60 minutes. Regarding PDE using cAMP as a substrate, PDELight (trademark) HTS cAMP phosphodiesterase Kit (Lonza) was used to measure a degradation product, 5′-AMP. Also, regarding PDE using cGMP as a substrate, […] of perchloric acid was added to the mixture to stop the reaction, and the resulting mixture was subjected to LC-MS/MS to measure the residual cGMP concentration. The amount of degraded substrate in each substrate concentration was calculated, the concentration of the added substrate was plotted on the horizontal axis, the amount of degraded substrate was plotted on the vertical axis, and Km value was calculated by non-linear regression on the basis of Michaelis-Menten equation. Km value (substrate) of each PDE was hPDE1A: 4.3 (cGMP), hPDE2A: 36 (cAMP), hPDE3A: 0.11 (cAMP), hPDE4D: 0.90 (cAMP), hPDE5A: 3.9 (cGMP), bovine PDE6:9.8 (cGMP), hPDE7B: 0.015 (cAMP), hPDE8B: 0.63 (cAMP), hPDE9A: 0.0037 (cGMP), hPDE10A: 0.051 (cAMP), and hPDE11A: 1.4 (cAMP) μmol/L, respectively.\n(§3) Next, PDE inhibition assay of a compound was carried out using each PDE. The PDE inhibition assay was basically carried out by the same enzyme reaction method as [Assay procedure 1], and the degraded amount of cAMP or cGMP was measured by the same method as [Assay procedure 2]. In the assay, a concentration approximated to Km value of each PDE against cAMP or cGMP was used as a substrate concentration. Meanwhile, regarding hPDE5A, hPDE8B, and hPDE9A, IMAP (trademark) FP Phosphodiesterase Evaluation Assay Kit (Molecular Devices) was used to measure the degradation of FAM-cAMP or FAM-cGMP by fluorescence depolarization technique.\n(§4) Each compound was evaluated at six or more concentrations with common ratio 10. Each inhibition rate was calculated according to <Method for data calculation 1>, and then each IC50 value was calculated by sigmoid regression. The resulting IC50 value was used in the following Cheng-Prusoff equation to calculate each Ki value. Ki=IC50/(1+[S]/Km), wherein [S] represents a substrate concentration used"}, "bovine PDE6": {"molecular_target": "T2, bovine PDE6 (Bos taurus, UniProt P11541+P23439)", "T2 construct": "PDE6 was purified and isolated from bovine retina (bovine PDE6); from tissue; host or cells: bovine retina", "T2 sequence (P11541 2-856 limits assumed)": "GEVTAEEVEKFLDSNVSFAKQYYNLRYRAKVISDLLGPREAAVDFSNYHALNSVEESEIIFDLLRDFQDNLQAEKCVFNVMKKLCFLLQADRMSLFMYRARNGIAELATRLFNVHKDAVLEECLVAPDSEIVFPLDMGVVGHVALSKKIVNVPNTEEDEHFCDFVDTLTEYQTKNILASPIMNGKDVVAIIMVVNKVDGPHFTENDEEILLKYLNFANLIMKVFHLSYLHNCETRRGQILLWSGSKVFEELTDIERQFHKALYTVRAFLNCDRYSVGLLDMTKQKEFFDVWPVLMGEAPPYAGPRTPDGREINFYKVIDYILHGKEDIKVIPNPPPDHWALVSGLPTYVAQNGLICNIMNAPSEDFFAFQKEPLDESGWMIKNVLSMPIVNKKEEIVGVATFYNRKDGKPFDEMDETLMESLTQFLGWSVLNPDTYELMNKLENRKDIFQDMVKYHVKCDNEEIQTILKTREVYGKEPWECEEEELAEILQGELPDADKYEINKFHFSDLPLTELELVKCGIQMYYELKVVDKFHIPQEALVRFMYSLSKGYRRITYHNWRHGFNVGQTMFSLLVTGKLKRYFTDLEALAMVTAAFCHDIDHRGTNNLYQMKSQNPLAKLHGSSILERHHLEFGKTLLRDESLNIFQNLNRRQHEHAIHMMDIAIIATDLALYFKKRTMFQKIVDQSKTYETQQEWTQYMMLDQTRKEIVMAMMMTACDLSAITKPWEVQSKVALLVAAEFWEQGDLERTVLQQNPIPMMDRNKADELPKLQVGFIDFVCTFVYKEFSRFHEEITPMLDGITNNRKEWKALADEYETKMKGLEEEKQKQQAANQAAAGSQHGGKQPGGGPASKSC", "T2 sequence (P23439 2-850 limits assumed)": "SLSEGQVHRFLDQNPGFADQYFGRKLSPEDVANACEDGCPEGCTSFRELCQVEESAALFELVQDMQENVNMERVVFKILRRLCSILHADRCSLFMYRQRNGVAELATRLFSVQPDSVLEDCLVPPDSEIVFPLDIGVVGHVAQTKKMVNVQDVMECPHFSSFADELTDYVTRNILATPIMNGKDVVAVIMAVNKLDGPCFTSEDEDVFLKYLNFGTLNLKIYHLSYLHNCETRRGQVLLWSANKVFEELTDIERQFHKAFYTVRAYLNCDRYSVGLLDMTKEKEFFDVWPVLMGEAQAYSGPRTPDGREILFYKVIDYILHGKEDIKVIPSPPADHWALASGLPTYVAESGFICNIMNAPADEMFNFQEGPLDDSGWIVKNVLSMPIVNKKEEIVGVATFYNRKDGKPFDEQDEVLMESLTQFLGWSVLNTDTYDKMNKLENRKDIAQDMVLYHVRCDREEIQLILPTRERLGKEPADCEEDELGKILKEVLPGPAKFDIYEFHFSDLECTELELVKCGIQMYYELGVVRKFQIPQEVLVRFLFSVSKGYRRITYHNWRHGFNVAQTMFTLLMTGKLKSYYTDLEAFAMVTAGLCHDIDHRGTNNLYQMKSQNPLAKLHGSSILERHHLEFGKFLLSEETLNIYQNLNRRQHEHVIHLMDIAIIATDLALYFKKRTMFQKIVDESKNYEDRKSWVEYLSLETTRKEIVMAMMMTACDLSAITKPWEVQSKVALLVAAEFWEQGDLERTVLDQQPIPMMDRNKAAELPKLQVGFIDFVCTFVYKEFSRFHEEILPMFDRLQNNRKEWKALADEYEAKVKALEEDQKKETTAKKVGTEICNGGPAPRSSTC", "assay": "PDE7 selectivity test (Ki value), Experimental Example 2: bovine PDE6", "assay_type": "biochemical", "details": "Ki from IC50 by Cheng-Prusoff, read-out: PDE inhibition constant Ki, PDE6", "experimental": "as §1, §2, §3, §4"}},
  "data": [
    {"smiles": "Nc1ncnc2c1nnn2C1CCCCC1", "note": "[Example 3, 3-cyclohexyl-3H-[1,2,3]triazolo[4,5-d]pyrimidin-7-amine]", "values": [
      {"measurement": "Ki", "setting": "hPDE5A", "value": "> 98", "unit": "µM"},
      {"measurement": "Ki", "setting": "bovine PDE6", "value": "> 49", "unit": "µM"}
    ]},
    {"smiles": "Cc1nc(N)c2nnn(C3CCCCC3)c2n1", "note": "[Example 4]", "values": [
      {"measurement": "Ki", "setting": "hPDE5A", "value": "> 9.8", "unit": "µM"},
      {"measurement": "Ki", "setting": "bovine PDE6", "value": "> 4.9", "unit": "µM"}
    ]},
    {"smiles": "CC1CCCCC1n1nnc2c(N)ncnc21", "note": "(single isomer, unassigned) [Example 191, 3-(cis-2-methylcyclohexyl)-3H-[1,2,3]triazolo[4,5-d]pyrimidin-7-amine]", "values": [
      {"measurement": "Ki", "setting": "hPDE5A", "value": "> 98", "unit": "µM"},
      {"measurement": "Ki", "setting": "bovine PDE6", "value": "> 49", "unit": "µM"}
    ]},
    {"smiles": "Nc1nccn2c(C3CCCCC3)nnc12", "note": "[Example 141, 3-cyclohexyl[1,2,4]triazolo[4,3-a]pyrazin-8-amine]", "values": [
      {"measurement": "Ki", "setting": "hPDE5A", "value": "> 9.8", "unit": "µM"},
      {"measurement": "Ki", "setting": "bovine PDE6", "value": "> 4.9", "unit": "µM"}
    ]},
    {"smiles": "C[C@@H]1CCC[C@H](c2nnc3c(N)nccn23)C1", "note": "[Example 204, 3-[(1S,3R)-3-methylcyclohexyl][1,2,4]triazolo[4,3-a]pyrazin-8-amine]", "values": [
      {"measurement": "Ki", "setting": "hPDE5A", "value": "> 98", "unit": "µM"},
      {"measurement": "Ki", "setting": "bovine PDE6", "value": "> 49", "unit": "µM"}
    ]}
  ]
}
